Source: PubChem BioAssay AID328 (DTP/NCI, 2004)
Where “and” joins values, the source holds several entries; their conditions need not be identical. Identical values can stand only once. Inconclusive results and toxic doses are left out.

Tested on: BDF1 mice, P388 leukemia ip, median survival T/C
Test: NCI In Vivo Anticancer Drug Screen. Data for tumor model P388 Leukemia (intraperitoneal) in B6D2F1 (BDF1) mice
Conditions: endpoint: median survival time, higher = longer survival
In short: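 In tumour-bearing mice, survival after compound treatment is set against the vehicle group and given as a quotient.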

[1] = dose: 100.0 mg/kg/injection, schedule: Q04DX003 (ip), vehicle: saline with Tween-80

`CCOC(=O)Nc1nc(NC(=O)OCC)c(Cl)nc1Cl` was tested, and the T/C (dose: 12.5 mg/kg/injection, schedule: Q01DX009 (ip), vehicle: water) was 113 % of control, the T/C (dose: 12.5 mg/kg/injection, schedule: Q04DX003 (ip), vehicle: water) was 90 % of control and 104 % of control and the T/C (dose: 25.0 mg/kg/injection, schedule: Q01DX009 (ip), vehicle: water) was 99 % of control. For the same compound, the T/C (dose: 25.0 mg/kg/injection, schedule: Q04DX003 (ip), vehicle: water) was 92 % of control and 104 % of control, the T/C (dose: 50.0 mg/kg/injection, schedule: Q01DX009 (ip), vehicle: water) was 111 % of control and the T/C (dose: 50.0 mg/kg/injection, schedule: Q04DX003 (ip), vehicle: water) was 102 % of control. For the same compound, the T/C (dose: 100.0 mg/kg/injection, schedule: Q01DX009 (ip), vehicle: water) was 99 % of control, the T/C (dose: 100.0 mg/kg/injection, schedule: Q04DX003 (ip), vehicle: water) was 100 % of control and 101 % of control and the T/C (dose: 200.0 mg/kg/injection, schedule: Q01DX009 (ip), vehicle: water) was 90 % of control. For the same compound, the T/C (dose: 200.0 mg/kg/injection, schedule: Q04DX003 (ip), vehicle: water) was 94 % of control and 96 % of control, the T/C (dose: 400.0 mg/kg/injection, schedule: Q01DX009 (ip), vehicle: water) was 101 % of control and the T/C (dose: 400.0 mg/kg/injection, schedule: Q04DX003 (ip), vehicle: water) was 112 % of control. For the same compound, the T/C (dose: 500.0 mg/kg/injection, schedule: Q04DX003 (ip), vehicle: water) was 96 % of control.
`Cc1nc2nc(N)[nH]c(=O)c2[nH]1` was tested, and the T/C (dose: 25.0 mg/kg/injection, schedule: Q01DX009 (ip), vehicle: saline with Tween-80) was 112 % of control, the T/C (dose: 50.0 mg/kg/injection, schedule: Q01DX009 (ip), vehicle: saline with Tween-80) was 124 % of control and the T/C (dose: 100.0 mg/kg/injection, schedule: Q01DX009 (ip), vehicle: saline with Tween-80) was 104 % of control. For the same compound, the T/C [1] was 109 % of control.
In the case of `O=C(O)c1ccccc1O.O=C(O)c1ccccc1O.[O]=[V]`, the T/C (dose: 8.0 mg/kg/injection, schedule: Q01DX010 (ip), vehicle: carboxymethylcellulose (CMC)) is reported as 90 % of control and the T/C (dose: 16.0 mg/kg/injection, schedule: Q01DX010 (ip), vehicle: carboxymethylcellulose (CMC)) is reported as 100 % of control.
With `NCC(=O)O` the T/C (dose: 100.0 mg/kg/injection, schedule: Q01DX009 (ip), vehicle: saline) was 95 % of control, the T/C (dose: 100.0 mg/kg/injection, schedule: Q04DX003 (ip), vehicle: saline) was 100 % of control and the T/C (dose: 200.0 mg/kg/injection, schedule: Q01DX009 (ip), vehicle: saline) was 104 % of control. For the same compound, the T/C (dose: 200.0 mg/kg/injection, schedule: Q04DX003 (ip), vehicle: saline) was 95 % of control, the T/C (dose: 400.0 mg/kg/injection, schedule: Q01DX009 (ip), vehicle: saline) was 95 % of control and the T/C (dose: 400.0 mg/kg/injection, schedule: Q04DX003 (ip), vehicle: saline) was 95 % of control.
In the case of `COc1cc2cc(c1Cl)N(C)C(=O)CC(OC(=O)C(C)N(C)C(=O)C(C)C)C1(C)OC1C(C)C1CC(O)(NC(=O)O1)C(OC)/C=C/C=C(C)C2` (stereo not drawn), the T/C (dose: 0.2 micrograms/kg/injection, schedule: Q01DX009 (ip), vehicle: saline + alcohol) is reported as 165 % of control, the T/C (dose: 0.4 micrograms/kg/injection, schedule: Q01DX009 (ip), vehicle: saline + alcohol) is reported as 155 % of control and the T/C (dose: 0.8 micrograms/kg/injection, schedule: Q01DX009 (ip), vehicle: saline + alcohol) is reported as 190 % of control. The T/C (dose: 1.6 micrograms/kg/injection, schedule: Q01DX009 (ip), vehicle: saline + alcohol) was 155 % of control, the T/C (dose: 6.2 micrograms/kg/injection, schedule: Q01DX009 (ip), vehicle: saline + alcohol) was 155 % of control and the T/C (dose: 12.5 micrograms/kg/injection, schedule: Q01DX009 (ip), vehicle: saline + alcohol) was 120 % of control.
With `CCOC(=O)c1cc2c(nn3c(C)cccc23)n(CC)c1=N` the T/C (dose: 6.25 mg/kg/injection, schedule: Q01DX001 (ip), vehicle: saline) was 105 % of control, the T/C (dose: 12.5 mg/kg/injection, schedule: Q01DX001 (ip), vehicle: saline) was 122 % of control and the T/C (dose: 25.0 mg/kg/injection, schedule: Q01DX001 (ip), vehicle: saline) was 100 % of control.
For `CCC(CO)NC(=O)/C=C/c1ccc(Cl)cc1` (stereo not drawn), the T/C (dose: 200.0 mg/kg/injection, schedule: Q01DX009 (ip), vehicle: saline with Tween-80) was 91 % of control.
For `Cc1ccc(NC(=O)C2CCC(C)(C(=O)O)C2(C)C)cc1` (stereo not drawn), the T/C (dose: 50.0 mg/kg/injection, schedule: Q04DX003 (ip), vehicle: saline with Tween-80) was 109 % of control, the T/C [1] was 90 % of control and the T/C (dose: 200.0 mg/kg/injection, schedule: Q04DX003 (ip), vehicle: saline with Tween-80) was 104 % of control.
